Test results: US20220267736A1, “PLURIPOTENT STEM CELL AGGREGATION SUPPRESSOR” (KANEKA CORPORATION, priority 2017, published 2022)

Tested on: human iPS cells (TkDN4-M)
Assay: Cell aggregate size distribution (widest portion) from micrographs during suspension culture
Assay type: cell-based
Settings: cytochalasin D 20 nM, jasplakinolide 20 nM, demecolcine 10 ng/mL; for percentage of cell aggregates whose size (diameter) was 40 μm or more and 300 μm or less, relative to the total cell aggregate count / percentage of cell aggregates whose size (diameter) was 60 μm or more and 300 μm or less / percentage of cell aggregates whose size (diameter) was 80 μm or more and 300 μm or less / percentage of cell aggregates whose size (diameter) was 100 μm or more and 300 μm or less / Number of cell aggregates by size / Percentage of cell aggregates by size: Day 1, DMSO 1%; for average ± standard deviation of cell aggregate sizes (diameters): Day 1 of culture, DMSO 1% (v/v), Y-27632 10 μM
Protocol: Cell suspensions were prepared in the same manner as in Example 2, and separately, the concentrations of the suppressors of cell aggregation were adjusted so that the final concentration of demecolcine (same as above) was 10 mg/mL (26.9 mM), the final concentration of cytochalasin D (same as above) was 0.51 mg/mL (1 mM), the concentration of DMSO (the same as above) was the stock concentration, or the final concentration of jasplakinolide (Cayman, 11705) was 0.14 mg/mL (0.2 mM). Then the concentration-adjusted cell aggregation suppressors were added to the cell suspensions so that the final concentration of demecolcine was 10 ng/mL, the final concentration of cytochalasin D was 20 nM, the final concentration of DMSO was 1% (v/v), or the final concentration of jasplakinolide was 20 nM, and the cells were seeded at a rate of 4 mL/well in a 6-well plate for suspension culture (Sumitomo Bakelite Co., Ltd., Japan). The cell-seeded plate was subjected to a swirling culture on a rotary shaker (OPTIMA, Inc., Japan) at a speed of 90 rpm along the horizontal plane to draw a circle with a swirling width (diameter) of 25 mm and cells were subjected to suspension culture under the environment of 5% CO2 and 37° C. After the next day of culture (Day 1 of culture), the culture medium was exchanged daily with a fresh culture medium (Essential 8™ culture medium containing BSA (Wako Pure Chemical Industries, Ltd.) at a final concentration of 5 mg/mL), and the culture was continued until 5 days after the start of culture. Images were obtained by phase contrast microscopy every day during culture. While 182 to 252 cell aggregates in images obtained on Day 1 of culture being observed and compared using a micrograph scale, the width (referred to as “φ”) of the widest portion of each cell aggregate was measured, distribution thereof was examined, and average±standard deviation was calculated. The concentration of glucose contained in the culture supernatant collected at the time of culture medium exchange was measured with biosensor BF-5iD (Prince Measuring Equipment Co., Ltd.) to calculate glucose consumption.

SMILES	percentage of cell aggregates whose size (diameter) was 40 μm or more and 300 μm or less, relative to the total cell aggregate count [%]	percentage of cell aggregates whose size (diameter) was 60 μm or more and 300 μm or less [%]	percentage of cell aggregates whose size (diameter) was 80 μm or more and 300 μm or less [%]	percentage of cell aggregates whose size (diameter) was 100 μm or more and 300 μm or less [%]	Number of cell aggregates by size (size range 40− μm)	Percentage of cell aggregates by size (size range 40− μm) [%]	Number of cell aggregates by size (size range 60− μm)	Percentage of cell aggregates by size (size range 60− μm) [%]	Number of cell aggregates by size (size range 80− μm)	Percentage of cell aggregates by size (size range 80− μm) [%]	Number of cell aggregates by size (size range 100− μm)	Percentage of cell aggregates by size (size range 100− μm) [%]	Number of cell aggregates by size (size range 120− μm)	Percentage of cell aggregates by size (size range 120− μm) [%]	Number of cell aggregates by size (size range 140− μm)	Percentage of cell aggregates by size (size range 140− μm) [%]	Number of cell aggregates by size (size range 160− μm)	Percentage of cell aggregates by size (size range 160− μm) [%]	Number of cell aggregates by size (size range 180− μm)	Percentage of cell aggregates by size (size range 180− μm) [%]	further results
C=C1[C@@H](C)[C@H]2[C@H](Cc3ccccc3)NC(=O)[C@]23[C@H](OC(C)=O)/C=C/[C@@](C)(O)C(=O)[C@@H](C)C/C=C/[C@H]3[C@@H]1O [cytochalasin D]	100	96	88.1	80.6	10	4.0	20	7.9	19	7.5	26	10.3	60	23.8	66	26.2	40	15.9	10	4.0	Number of cell aggregates by size (size range 200− μm): 0; Percentage of cell aggregates by size (size range 200− μm): 0.0%; Number of cell aggregates by size (size range 220− μm): 1; Percentage of cell aggregates by size (size range 220− μm): 0.4%; Number of cell aggregates by size (size range 240− μm): 0; Percentage of cell aggregates by size (size range 240− μm): 0.0%; Number of cell aggregates by size (size range 260− μm): 0; Percentage of cell aggregates by size (size range 260− μm): 0.0%; Number of cell aggregates by size (size range 280− μm): 0; Percentage of cell aggregates by size (size range 280− μm): 0.0%; Number of cell aggregates by size (size range 300− μm): 0; Percentage of cell aggregates by size (size range 300− μm): 0.0%; average ± standard deviation of cell aggregate sizes (diameters): 132.5±34.8 μm
C/C1=C\[C@H](C)C[C@H](C)OC(=O)C[C@H](c2ccc(O)cc2)NC(=O)[C@@H](Cc2c(Br)[nH]c3ccccc23)N(C)C(=O)[C@H](C)NC(=O)[C@@H](C)C1 [jasplakinolide]	100	98.1	96.2	95.7	4	1.9	4	1.9	1	0.5	8	3.9	23	11.2	52	25.2	66	32.0	30	14.6	Number of cell aggregates by size (size range 200− μm): 9; Percentage of cell aggregates by size (size range 200− μm): 4.4%; Number of cell aggregates by size (size range 220− μm): 4; Percentage of cell aggregates by size (size range 220− μm): 1.9%; Number of cell aggregates by size (size range 240− μm): 1; Percentage of cell aggregates by size (size range 240− μm): 0.5%; Number of cell aggregates by size (size range 260− μm): 1; Percentage of cell aggregates by size (size range 260− μm): 0.5%; Number of cell aggregates by size (size range 280− μm): 2; Percentage of cell aggregates by size (size range 280− μm): 1.0%; Number of cell aggregates by size (size range 300− μm): 1; Percentage of cell aggregates by size (size range 300− μm): 0.5%; average ± standard deviation of cell aggregate sizes (diameters): 162.7±37.2 μm
C[S+](C)[O-] [DMSO, dimethylsulfoxide]	100	100	98.5	96.0	0	0.0	3	1.5	5	2.5	2	1.0	24	12.1	56	28.1	56	28.1	33	16.6	Number of cell aggregates by size (size range 200− μm): 12; Percentage of cell aggregates by size (size range 200− μm): 6.0%; Number of cell aggregates by size (size range 220− μm): 5; Percentage of cell aggregates by size (size range 220− μm): 2.5%; Number of cell aggregates by size (size range 240− μm): 1; Percentage of cell aggregates by size (size range 240− μm): 0.5%; Number of cell aggregates by size (size range 260− μm): 1; Percentage of cell aggregates by size (size range 260− μm): 0.5%; Number of cell aggregates by size (size range 280− μm): 1; Percentage of cell aggregates by size (size range 280− μm): 0.5%; Number of cell aggregates by size (size range 300− μm): 0; Percentage of cell aggregates by size (size range 300− μm): 0.0%; average ± standard deviation of cell aggregate sizes (diameters): 164.8±31.8 μm
